Measured values published in ChEMBL document CHEMBL1154674, “Synthesis and evaluation of three 18F-labeled aminophenylbenzothiazoles as amyloid imaging agents” (J Med Chem, 2009).
Each block holds one molecule with its values, some of them ahead of it.

Legend:
Format in all cases: ADME, organism-based, Macaca mulatta
[1] = Drug level in normal rhesus monkey frontal cortex assessed as standard uptake value at 81.2 MBq, iv after 42.5 mins by microPET; conditions: in vivo
[2] = Drug level in normal rhesus monkey thalamus assessed as standard uptake value at 96.3 MBq, iv after 2.5 mins by microPET; conditions: in vivo
[3] = Drug level in normal rhesus monkey pons assessed as standard uptake value at 96.3 MBq, iv after 32.5 mins by microPET; conditions: in vivo
[4] = Drug level in normal rhesus monkey frontal cortex assessed as standard uptake value at 96.3 MBq, iv after 65 mins by microPET; conditions: in vivo
[5] = Drug level in normal rhesus monkey thalamus assessed as standard uptake value at 109.4 MBq, iv after 52.5 mins by microPET; conditions: in vivo, 0.875 h
[6] = Drug level in normal rhesus monkey white matter assessed as standard uptake value at 109.4 MBq, iv after 1.5 mins by microPET; conditions: in vivo, 0.025 h
[7] = Drug level in normal rhesus monkey thalamus assessed as standard uptake value at 152.9 MBq, iv after 47.5 mins by microPET; conditions: in vivo
[8] = Drug level in normal rhesus monkey pons assessed as standard uptake value at 152.9 MBq, iv after 37.5 mins by microPET; conditions: in vivo, 0.625 h

SUV [1]: 5.476
Structure (SMILES): CNc1ccc2nc(-c3ccc([18F])cc3)sc2c1

SUV [2]: 1.52 | SUV [3]: 1.67 | SUV [4]: 1.79
Structure (SMILES): CN(C)c1ccc2nc(-c3ccc([18F])cc3)sc2c1

SUV [5]: 5.41 | SUV [6]: 1.98
Structure (SMILES): Nc1ccc2nc(-c3ccc([18F])cc3)sc2c1

SUV [7]: 1.161 | SUV [8]: 1.229
Structure (SMILES): [11CH3]Nc1ccc(-c2nc3ccc(O)cc3s2)cc1 [PITTSBURGH COMPOUND B]
